Laboratory results as given in ChEMBL document CHEMBL4007467, “Effects of 6-paradol, an unsaturated ketone from gingers, on cytochrome P450-mediated drug metabolism” (Bioorg Med Chem Lett, 2017).

Columns and labels:
Assay type in all cases: ADME
CYP2A6 = target: T1, CYP2A6 (Homo sapiens, UniProt P11509); assay: Inhibition of CYP2A6 in human liver microsomes assessed as enzyme-mediated metabolite formation at 10 uM using coumarin as substrate incubated for 5 mins followed by NADPH addition measured after 30 mins by LC-MS/MS analysis relative to control; parameters: scale not given: the % may be the effect or the level left; conditions: probe coumarin, read-out: Activity
T1 sequence (P11509 whole entry): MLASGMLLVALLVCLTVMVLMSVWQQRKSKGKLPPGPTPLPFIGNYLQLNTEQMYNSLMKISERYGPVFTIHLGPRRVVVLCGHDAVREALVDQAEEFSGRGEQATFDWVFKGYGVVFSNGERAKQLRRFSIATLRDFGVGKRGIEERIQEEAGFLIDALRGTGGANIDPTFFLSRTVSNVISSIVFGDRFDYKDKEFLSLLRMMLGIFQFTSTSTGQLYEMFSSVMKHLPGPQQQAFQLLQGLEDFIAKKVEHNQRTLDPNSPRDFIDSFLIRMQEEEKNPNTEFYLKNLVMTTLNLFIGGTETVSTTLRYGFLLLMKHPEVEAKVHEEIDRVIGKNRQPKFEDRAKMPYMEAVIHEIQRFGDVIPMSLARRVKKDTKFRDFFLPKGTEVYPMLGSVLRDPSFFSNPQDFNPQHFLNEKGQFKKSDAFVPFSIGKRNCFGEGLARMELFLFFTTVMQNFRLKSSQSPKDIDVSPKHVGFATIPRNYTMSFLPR

CYP2C8 = target: T2, CYP2C8 (Homo sapiens, UniProt P10632); assay: Inhibition of CYP2C8 in human liver microsomes assessed as enzyme-mediated metabolite formation at 1 uM using paclitaxel as substrate incubated for 5 mins followed by NADPH addition measured after 30 mins by LC-MS/MS analysis relative to control; parameters: scale not given: the % may be the effect or the level left; conditions: probe paclitaxel, read-out: Activity
T2 sequence (P10632 whole entry): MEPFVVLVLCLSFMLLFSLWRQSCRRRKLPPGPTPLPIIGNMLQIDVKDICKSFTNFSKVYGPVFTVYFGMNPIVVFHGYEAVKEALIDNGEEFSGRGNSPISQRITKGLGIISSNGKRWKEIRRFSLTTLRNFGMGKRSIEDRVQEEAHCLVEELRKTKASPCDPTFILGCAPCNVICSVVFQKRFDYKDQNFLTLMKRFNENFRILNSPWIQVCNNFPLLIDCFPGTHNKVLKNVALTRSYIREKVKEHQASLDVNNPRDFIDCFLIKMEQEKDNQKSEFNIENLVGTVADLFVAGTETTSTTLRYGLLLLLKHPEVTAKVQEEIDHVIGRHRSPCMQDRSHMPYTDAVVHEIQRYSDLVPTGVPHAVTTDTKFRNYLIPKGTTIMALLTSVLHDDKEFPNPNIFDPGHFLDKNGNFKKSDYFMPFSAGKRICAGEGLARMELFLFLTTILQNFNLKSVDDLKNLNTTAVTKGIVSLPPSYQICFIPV

CYP2C9 [1] = target: T3, CYP2C9 (Homo sapiens, UniProt P11712); assay: Inhibition of CYP2C9 in human liver microsomes assessed as enzyme-mediated metabolite formation at 10 uM using diclofenac as substrate incubated for 5 mins followed by NADPH addition measured after 30 mins by LC-MS/MS analysis relative to control; parameters: scale not given: the % may be the effect or the level left; conditions: probe diclofenac, read-out: Activity
T3 sequence (P11712 whole entry): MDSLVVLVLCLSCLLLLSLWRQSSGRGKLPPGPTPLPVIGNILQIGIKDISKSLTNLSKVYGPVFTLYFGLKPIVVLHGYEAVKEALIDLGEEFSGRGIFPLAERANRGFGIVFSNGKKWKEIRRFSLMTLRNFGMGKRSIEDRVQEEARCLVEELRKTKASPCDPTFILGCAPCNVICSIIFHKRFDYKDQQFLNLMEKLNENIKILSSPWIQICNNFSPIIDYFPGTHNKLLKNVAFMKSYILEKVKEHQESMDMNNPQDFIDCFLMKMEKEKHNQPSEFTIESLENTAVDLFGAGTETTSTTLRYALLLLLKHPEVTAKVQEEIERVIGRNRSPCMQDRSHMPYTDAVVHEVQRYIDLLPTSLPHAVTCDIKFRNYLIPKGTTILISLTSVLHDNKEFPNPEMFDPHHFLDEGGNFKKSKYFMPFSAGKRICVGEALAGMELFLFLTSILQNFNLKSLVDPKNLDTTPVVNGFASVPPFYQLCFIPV

Cytochrome P450 2C9 = Cytochrome P450 2C9 (Homo sapiens, UniProt P11712); assay: Inhibition of CYP2C9 in human liver microsomes assessed as enzyme-mediated metabolite formation using diclofenac as substrate incubated for 5 mins followed by NADPH addition measured after 30 mins by LC-MS/MS analysis
Cytochrome P450 2C9, sequence (P11712 whole entry): as above

CYP2C19 [2] = target: T4, CYP2C19 (Homo sapiens, UniProt P33261); assay: Inhibition of CYP2C19 in human liver microsomes assessed as enzyme-mediated metabolite formation at 0.1 uM using (S)-mephenytoin as substrate incubated for 5 mins followed by NADPH addition measured after 30 mins by LC-MS/MS analysis relative to control; parameters: scale not given: the % may be the effect or the level left; conditions: probe (S)-mephenytoin, read-out: Activity
T4 sequence (P33261 whole entry): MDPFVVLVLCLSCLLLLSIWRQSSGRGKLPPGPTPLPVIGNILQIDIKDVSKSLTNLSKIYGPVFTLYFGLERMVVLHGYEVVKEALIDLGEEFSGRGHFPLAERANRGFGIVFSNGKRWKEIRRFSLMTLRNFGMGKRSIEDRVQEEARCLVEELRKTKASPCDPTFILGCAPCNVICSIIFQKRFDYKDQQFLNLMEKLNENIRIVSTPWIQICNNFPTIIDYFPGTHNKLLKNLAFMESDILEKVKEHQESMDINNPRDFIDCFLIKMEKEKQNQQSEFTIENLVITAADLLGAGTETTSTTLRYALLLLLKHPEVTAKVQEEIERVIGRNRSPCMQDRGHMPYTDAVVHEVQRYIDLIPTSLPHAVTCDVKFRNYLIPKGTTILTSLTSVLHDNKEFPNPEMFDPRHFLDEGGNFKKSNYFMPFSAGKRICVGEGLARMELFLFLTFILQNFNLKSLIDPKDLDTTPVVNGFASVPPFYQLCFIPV

CYP2C19 [3] = target: T4, CYP2C19; assay: Inhibition of CYP2C19 in human liver microsomes assessed as enzyme-mediated metabolite formation at 10 uM using (S)-mephenytoin as substrate incubated for 5 mins followed by NADPH addition measured after 30 mins by LC-MS/MS analysis relative to control; parameters: scale not given: the % may be the effect or the level left; conditions: probe (S)-mephenytoin, read-out: Activity
CYP2D6 [4] = target: T5, CYP2D6 (Homo sapiens, UniProt P10635); assay: Inhibition of CYP2D6 in human liver microsomes assessed as enzyme-mediated metabolite formation at 0.1 uM using dextromethorphan as substrate incubated for 5 mins followed by NADPH addition measured after 30 mins by LC-MS/MS analysis relative to control; parameters: scale not given: the % may be the effect or the level left; conditions: probe dextromethorphan, read-out: Activity
T5 sequence (P10635 whole entry): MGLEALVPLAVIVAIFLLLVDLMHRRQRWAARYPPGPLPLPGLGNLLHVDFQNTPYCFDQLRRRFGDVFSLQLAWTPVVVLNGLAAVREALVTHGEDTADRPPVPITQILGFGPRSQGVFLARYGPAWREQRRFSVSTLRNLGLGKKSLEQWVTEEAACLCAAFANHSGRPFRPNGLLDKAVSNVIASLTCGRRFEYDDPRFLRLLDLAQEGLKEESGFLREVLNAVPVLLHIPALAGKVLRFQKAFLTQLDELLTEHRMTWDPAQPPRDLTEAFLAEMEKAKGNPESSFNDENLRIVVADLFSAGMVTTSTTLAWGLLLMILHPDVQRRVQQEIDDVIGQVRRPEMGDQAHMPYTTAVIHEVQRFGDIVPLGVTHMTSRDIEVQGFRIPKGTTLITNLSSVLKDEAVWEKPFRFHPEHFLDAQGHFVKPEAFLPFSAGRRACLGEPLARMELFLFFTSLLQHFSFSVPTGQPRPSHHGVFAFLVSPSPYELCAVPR

CYP2D6 [5] = target: T5, CYP2D6; assay: Inhibition of CYP2D6 in human liver microsomes assessed as enzyme-mediated metabolite formation at 3 uM using dextromethorphan as substrate incubated for 5 mins followed by NADPH addition measured after 30 mins by LC-MS/MS analysis relative to control; parameters: scale not given: the % may be the effect or the level left; conditions: probe dextromethorphan, read-out: Activity
Cytochrome P450 2C8 = target: T6, Cytochrome P450 2C8 (Homo sapiens, UniProt P10632); assay: Inhibition of CYP2C8 in human liver microsomes using paclitaxel as substrate preincubated for 20 mins followed by substrate addition measured after 30 mins in presence of NADPH by LC-MS/MS analysis
T6 sequence (P10632 whole entry): T2 sequence (P10632 whole entry)

CYP2C9 [6] = target: T3, CYP2C9; assay: Inhibition of CYP2C9 in human liver microsomes assessed as enzyme-mediated metabolite formation at 0.3 uM using diclofenac as substrate preincubated for 20 mins followed by substrate addition measured after 30 mins in presence of NADPH by LC-MS/MS analysis relative to control; parameters: scale not given: the % may be the effect or the level left; conditions: probe diclofenac, read-out: Activity
CYP2C19 [7] = target: T4, CYP2C19; assay: Inhibition of CYP2C19 in human liver microsomes assessed as enzyme-mediated metabolite formation at 0.1 uM using (S)-mephenytoin as substrate preincubated for 20 mins followed by substrate addition measured after 30 mins in presence of NADPH by LC-MS/MS analysis relative to control; parameters: scale not given: the % may be the effect or the level left; conditions: probe (S)-mephenytoin, read-out: Activity
CYP2C19 [8] = target: T4, CYP2C19; assay: Inhibition of CYP2C19 in human liver microsomes assessed as enzyme-mediated metabolite formation at 10 uM using (S)-mephenytoin as substrate preincubated for 20 mins followed by substrate addition measured after 30 mins in presence of NADPH by LC-MS/MS analysis relative to control; parameters: scale not given: the % may be the effect or the level left; conditions: probe (S)-mephenytoin, read-out: Activity

activity at 0.5 h, 10 µM (CYP2A6): 81.5%
activity at 0.5 h, 1 µM (CYP2C8): 68.7%
activity at 0.5 h, 10 µM (CYP2C9 [1]): 52.3%
IC50 (Cytochrome P450 2C9): 13.6 µM
activity at 0.5 h, 0.1 µM (CYP2C19 [2]): 98.4%
activity at 0.5 h, 10 µM (CYP2C19 [3]): 51.5%
activity at 0.5 h, 0.1 µM (CYP2D6 [4]): 112%
activity at 0.5 h, 3 µM (CYP2D6 [5]): 74.6%
IC50 (Cytochrome P450 2C8): 8.3 µM
activity at 0.5 h, 0.3 µM (CYP2C9 [6]): 72.6%
activity at 0.5 h, 0.1 µM (CYP2C19 [7]): 102%
activity at 0.5 h, 10 µM (CYP2C19 [8]): 44.5%
SMILES: CCCCCCCC(=O)CCc1ccc(O)c(OC)c1
